# Where “and” joins values, the source holds several entries; their conditions need not be identical. Equal values may be shown once. Toxic doses and inconclusive results are not listed.
# Test system: P388 leukemia ip, CD2F1 mice, survival T/C
# Experiment: NCI In Vivo Anticancer Drug Screen. Data for tumor model P388 Leukemia (intraperitoneal) in CD2F1 (CDF1) mice
# Conditions: endpoint: median survival time, higher = longer survival
# Procedure, shortened: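 Mice carrying the transplanted tumor received test compound or vehicle. Survival was recorded in each group, and the value is the treated-group measurement divided by that of the vehicle-treated control group.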
# [1] = dose: 60.0 mg/kg/injection, schedule: Q01DX005 (ip), vehicle: saline with Tween-80
# [2] = dose: 120.0 mg/kg/injection, schedule: Q01DX005 (ip), vehicle: saline with Tween-80
# [3] = dose: 240.0 mg/kg/injection, schedule: Q01DX005 (ip), vehicle: saline with Tween-80
# [4] = dose: 50.0 mg/kg/injection, schedule: Q01DX009 (ip), vehicle: saline
# [5] = dose: 100.0 mg/kg/injection, schedule: Q01DX009 (ip), vehicle: saline
# [6] = dose: 200.0 mg/kg/injection, schedule: Q01DX009 (ip), vehicle: saline
# [7] = dose: 100.0 mg/kg/injection, schedule: Q01DX009 (ip), vehicle: saline with Tween-80
# [8] = dose: 50.0 mg/kg/injection, schedule: Q01DX005 (ip), vehicle: Klucel (hydroxypropylcellulose) (HPC)
# [9] = dose: 100.0 mg/kg/injection, schedule: Q01DX005 (ip), vehicle: Klucel (hydroxypropylcellulose) (HPC)
# [10] = dose: 200.0 mg/kg/injection, schedule: Q01DX005 (ip), vehicle: Klucel (hydroxypropylcellulose) (HPC)
# [11] = dose: 50.0 mg/kg/injection, schedule: Q01DX005 (ip), vehicle: saline with Tween-80
# [12] = dose: 100.0 mg/kg/injection, schedule: Q01DX005 (ip), vehicle: saline with Tween-80
# [13] = dose: 200.0 mg/kg/injection, schedule: Q01DX005 (ip), vehicle: saline with Tween-80
smiles,measurement,setting,value
O=C(c1c(F)c(F)c(F)c(F)c1F)n1ccnc1,T/C,"dose: 60.0 mg/kg/injection, schedule: Q01DX005 (ip), vehicle: saline",104 % of control
same,T/C,"dose: 120.0 mg/kg/injection, schedule: Q01DX005 (ip), vehicle: saline",101 % of control
same,T/C,"dose: 240.0 mg/kg/injection, schedule: Q01DX005 (ip), vehicle: saline",87 % of control
O=C1Cc2ccccc2N1C(=O)c1ccccc1Br,T/C,"dose: 100.0 mg/kg/injection, schedule: Q01DX001 (ip), vehicle: Klucel (hydroxypropylcellulose) (HPC)",106 % of control
same,T/C,"dose: 200.0 mg/kg/injection, schedule: Q01DX001 (ip), vehicle: Klucel (hydroxypropylcellulose) (HPC)",98 % of control
same,T/C,"dose: 400.0 mg/kg/injection, schedule: Q01DX001 (ip), vehicle: Klucel (hydroxypropylcellulose) (HPC)",90 % of control
Clc1ccccc1C(Nc1nncs1)Nc1nncs1,T/C,[1],106 % of control
same,T/C,[2],113 % of control
same,T/C,[3],122 % of control
CN(C)CCCOC(=O)Cc1cccc2c(=O)cc(-c3ccccc3)oc12,T/C,[4],101 % of control
same,T/C,[5],99 % of control
same,T/C,[6],118 % of control
S=c1sc(-c2ccc(Cl)cc2)nn1CSc1nc2ccccc2o1,T/C,[1],97 % of control
same,T/C,[2],101 % of control
same,T/C,[3],95 % of control
COc1ccccc1N1C(=O)/C(=N\OC(=O)c2c(-c3c(Cl)cccc3Cl)noc2C)SC1=S,T/C,[4],104 % of control
same,T/C,[5],90 % of control
same,T/C,[6],89 % of control
COc1ccccc1N1CCCSC1=Nc1ccccc1,T/C,"dose: 12.5 mg/kg/injection, schedule: Q01DX009 (ip), vehicle: Klucel (hydroxypropylcellulose) (HPC)",105 % of control
same,T/C,"dose: 25.0 mg/kg/injection, schedule: Q01DX009 (ip), vehicle: Klucel (hydroxypropylcellulose) (HPC)",98 % of control
same,T/C,"dose: 50.0 mg/kg/injection, schedule: Q01DX009 (ip), vehicle: Klucel (hydroxypropylcellulose) (HPC)",90 % of control
same,T/C,"dose: 100.0 mg/kg/injection, schedule: Q01DX009 (ip), vehicle: Klucel (hydroxypropylcellulose) (HPC)",119 % of control
same,T/C,"dose: 200.0 mg/kg/injection, schedule: Q01DX009 (ip), vehicle: Klucel (hydroxypropylcellulose) (HPC)",90 % of control
FC(F)(F)COP1(OCC(F)(F)F)(OCC(F)(F)F)SC(C(F)(F)F)=C(C(F)(F)F)S1,T/C,"dose: 50.0 mg/kg/injection, schedule: Q04DX002 (ip), vehicle: saline",102 % of control and 103 % of control
same,T/C,"dose: 100.0 mg/kg/injection, schedule: Q04DX002 (ip), vehicle: saline",99 % of control and 100 % of control (2×)
same,T/C,"dose: 200.0 mg/kg/injection, schedule: Q04DX002 (ip), vehicle: saline",100 % of control and 107 % of control
same,T/C,"dose: 400.0 mg/kg/injection, schedule: Q04DX002 (ip), vehicle: saline",102 % of control and 107 % of control
CN(C)CCNc1ccc(N)c2sc3ccccc3c(=O)c12,T/C,"dose: 25.0 mg/kg/injection, schedule: Q01DX009 (ip), vehicle: saline with Tween-80",99 % of control and 92 % of control
same,T/C,"dose: 50.0 mg/kg/injection, schedule: Q01DX009 (ip), vehicle: saline with Tween-80",100 % of control and 112 % of control and 93 % of control
same,T/C,[7],112 % of control and 121 % of control
Cc1ccc(O)c(C(=NCCCCN=C(c2ccccc2)c2cc(C)ccc2O)c2ccccc2)c1.[Ni],T/C,"dose: 25.0 mg/kg/injection, schedule: Q01DX005 (ip), vehicle: Klucel (hydroxypropylcellulose) (HPC)",97 % of control
same,T/C,[8],97 % of control
same,T/C,[9],103 % of control
same,T/C,[10],94 % of control
CCOC(=O)CC1(O)CSC(=C(C(=O)OCC)C(=O)OCC)N1c1ccccc1 (centres undefined),T/C,[11],98 % of control
same,T/C,[12],91 % of control
same,T/C,[13],102 % of control
O=S(=O)(Nc1ncccn1)c1ccc(NCc2c3ccccc3nc3ccccc23)cc1,T/C,"dose: 12.5 mg/kg/injection, schedule: Q04DX002 (ip), vehicle: Klucel (hydroxypropylcellulose) (HPC)",96 % of control
same,T/C,"dose: 25.0 mg/kg/injection, schedule: Q04DX002 (ip), vehicle: Klucel (hydroxypropylcellulose) (HPC)",99 % of control
same,T/C,"dose: 50.0 mg/kg/injection, schedule: Q04DX002 (ip), vehicle: Klucel (hydroxypropylcellulose) (HPC)",87 % of control and 96 % of control
same,T/C,"dose: 100.0 mg/kg/injection, schedule: Q04DX002 (ip), vehicle: Klucel (hydroxypropylcellulose) (HPC)",87 % of control and 90 % of control
same,T/C,"dose: 200.0 mg/kg/injection, schedule: Q04DX002 (ip), vehicle: Klucel (hydroxypropylcellulose) (HPC)",96 % of control
same,T/C,"dose: 400.0 mg/kg/injection, schedule: Q04DX002 (ip), vehicle: Klucel (hydroxypropylcellulose) (HPC)",91 % of control and 96 % of control
Cc1ccno1,T/C,[4],105 % of control
same,T/C,[5],105 % of control
same,T/C,[6],105 % of control
same,T/C,"dose: 400.0 mg/kg/injection, schedule: Q01DX009 (ip), vehicle: saline",100 % of control
C#Cc1cccc(N=Cc2cc(Cl)cc(Br)c2O)c1,T/C,[11],105 % of control
same,T/C,[12],102 % of control
same,T/C,[13],107 % of control
CC(=O)OCCOCNC(=S)N/N=C/c1ccccn1,T/C,[1],115 % of control
CCCCN(C(C)=O)c1nc2ccccc2n1C,T/C,"dose: 100.0 mg/kg/injection, schedule: Q04DX003 (ip), vehicle: saline",97 % of control
same,T/C,"dose: 200.0 mg/kg/injection, schedule: Q04DX003 (ip), vehicle: saline",98 % of control
same,T/C,"dose: 400.0 mg/kg/injection, schedule: Q04DX003 (ip), vehicle: saline",95 % of control
CC(C)C1=CC2=C(CC1)C1(C)CCCC(C)(C(=O)O)C1CC2 (centres undefined),T/C,[7],100 % of control
same,T/C,"dose: 200.0 mg/kg/injection, schedule: Q01DX009 (ip), vehicle: saline with Tween-80",100 % of control
same,T/C,"dose: 400.0 mg/kg/injection, schedule: Q01DX009 (ip), vehicle: saline with Tween-80",100 % of control
COc1cccc2c1C(=O)c1c(O)c3c(c(O)c1C2=O)C[C@@](O)(C(=O)COC(=O)c1cccnc1)C[C@@H]3OC1CC(N)C(O)C(C)O1 (some centres undefined),T/C,"dose: 0.25 mg/kg/injection, schedule: Q04DX003 (ip), vehicle: saline",114 % of control
same,T/C,"dose: 0.5 mg/kg/injection, schedule: Q01DX009 (ip), vehicle: saline with Tween-80",118 % of control
same,T/C,"dose: 0.5 mg/kg/injection, schedule: Q01DX009 (ip), vehicle: water",163 % of control
same,T/C,"dose: 0.5 mg/kg/injection, schedule: Q04DX003 (ip), vehicle: saline",113 % of control
same,T/C,"dose: 0.5 mg/kg/injection, schedule: Q04DX003 (ip), vehicle: water",109 % of control
same,T/C,"dose: 1.0 mg/kg/injection, schedule: Q01DX009 (ip), vehicle: saline with Tween-80",122 % of control
same,T/C,"dose: 1.0 mg/kg/injection, schedule: Q01DX009 (ip), vehicle: water",167 % of control
same,T/C,"dose: 1.0 mg/kg/injection, schedule: Q04DX003 (ip), vehicle: saline",116 % of control and 122 % of control
same,T/C,"dose: 1.0 mg/kg/injection, schedule: Q04DX003 (ip), vehicle: water",119 % of control
same,T/C,"dose: 1.32 mg/kg/injection, schedule: Q01DX009 (ip), vehicle: saline sonified",209 % of control
same,T/C,"dose: 2.0 mg/kg/injection, schedule: Q01DX009 (ip), vehicle: saline sonified",209 % of control
same,T/C,"dose: 2.0 mg/kg/injection, schedule: Q01DX009 (ip), vehicle: water",229 % of control
same,T/C,"dose: 2.0 mg/kg/injection, schedule: Q04DX003 (ip), vehicle: saline",108 % of control
same,T/C,"dose: 2.0 mg/kg/injection, schedule: Q04DX003 (ip), vehicle: water",119 % of control
same,T/C,"dose: 3.0 mg/kg/injection, schedule: Q01DX009 (ip), vehicle: saline sonified",104 % of control
same,T/C,"dose: 4.0 mg/kg/injection, schedule: Q01DX009 (ip), vehicle: water",102 % of control
same,T/C,"dose: 4.0 mg/kg/injection, schedule: Q04DX003 (ip), vehicle: saline",113 % of control
same,T/C,"dose: 4.0 mg/kg/injection, schedule: Q04DX003 (ip), vehicle: water",119 % of control
same,T/C,"dose: 8.0 mg/kg/injection, schedule: Q04DX003 (ip), vehicle: saline",118 % of control
same,T/C,"dose: 8.0 mg/kg/injection, schedule: Q04DX003 (ip), vehicle: water",172 % of control
same,T/C,"dose: 16.0 mg/kg/injection, schedule: Q04DX003 (ip), vehicle: water",166 % of control
same,T/C,"dose: 64.0 mg/kg/injection, schedule: Q04DX003 (ip), vehicle: saline",95 % of control
NS(=O)(=O)c1ccc(C(=O)O)s1,T/C,[11],104 % of control
same,T/C,[12],100 % of control
Cc1ccc(/C=C(\NC(=O)c2ccc(C)cc2)C(=O)O)cc1,T/C,[8],114 % of control
same,T/C,[9],114 % of control
same,T/C,[10],107 % of control

# — PubChem BioAssay AID330 (DTP/NCI, 2004)
